The supplement of paper PMC11061612

Tests used:
Experiment in all cases: Bliss excess, mean over the matrix (fraction); higher = more synergy
[1] = test system: SNU-407 (Colorectal Carcinoma)
How it was run: (§1)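 Cell lines in DMEM/F12 or RPMI with 10% FBS were plated in 1536-well plates, held 24 hours at 37°C, 5% CO2, then given two-drug dose matrices for 72 hours (DMSO typically 0.2%). Viability was read by CellTiter-Glo 2.0 luminescence and scaled as inhibition from 0 (vehicle wells) to 1 (blank wells). Combination Emax is the second-highest inhibition in the matrix; Bliss excess is observed combination effect minus expected EA + EB − EA·EB, EA and EB being single-agent effects.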

[2] = test system: ZR-75-30 (Breast Carcinoma)
How it was run: as §1

[3] = test system: SiHa (Cervical Carcinoma)
How it was run: as §1

[4] = test system: NMC-G1 (Low Grade Glioma)
How it was run: as §1

[5] = test system: NCI-H1963 (Small Cell Lung Carcinoma)
How it was run: as §1

T47D (Breast Carcinoma) = test system: T47D (Breast Carcinoma)
How it was run: as §1

[6] = test system: T84 (Colorectal Carcinoma)
How it was run: as §1

NCI-H2373 (Mesothelioma) = test system: NCI-H2373 (Mesothelioma)
How it was run: as §1

NB1 (Neuroblastoma) = test system: NB1 (Neuroblastoma)
How it was run: as §1

[7] = test system: OAW-28 (Ovarian Carcinoma)
How it was run: as §1

[8] = test system: SUP-M2 (T-Cell Non-Hodgkin's Lymphoma)
How it was run: as §1

[9] = test system: SK-CO-1 (Colorectal Carcinoma)
How it was run: as §1

IST-MEL1 (Melanoma) = test system: IST-MEL1 (Melanoma)
How it was run: as §1

[10] = test system: NCI-H1876 (Small Cell Lung Carcinoma)
How it was run: as §1

[11] = test system: SAT (Head and Neck Carcinoma)
How it was run: as §1

[12] = test system: OVCAR-3 (Ovarian Carcinoma)
How it was run: as §1

[13] = test system: MM1S (Plasma Cell Myeloma)
How it was run: as §1

[14] = test system: LCLC-103H (Non-Small Cell Lung Carcinoma)
How it was run: as §1

[15] = test system: LS-1034 (Colorectal Carcinoma)
How it was run: as §1

NCI-H226 (Mesothelioma) = test system: NCI-H226 (Mesothelioma)
How it was run: as §1

Row | Compound | Bliss excess [1] | Bliss excess [2] | Bliss excess [3] | Bliss excess [4] | Bliss excess [5] | Bliss excess (T47D (Breast Carcinoma)) | Bliss excess [6] | Bliss excess (NCI-H2373 (Mesothelioma)) | Bliss excess (NB1 (Neuroblastoma)) | Bliss excess [7] | Bliss excess [8] | Bliss excess [9] | Bliss excess (IST-MEL1 (Melanoma)) | Bliss excess [10] | Bliss excess [11] | Bliss excess [12] | Bliss excess [13] | Bliss excess [14] | Bliss excess [15] | Bliss excess (NCI-H226 (Mesothelioma))
1 | Cc1cc2ncnn2cc1Nc1ncc2c(n1)n(C1CCOCC1)c(=O)n2C [AZD7648] + C=CCn1c(=O)c2cnc(Nc3ccc(N4CCN(C)CC4)cc3)nc2n1-c1cccc(C(C)(C)O)n1 [AZD1775] (first compound max 10 µM, partner max 1 µM) | 0.0134 | -0.0678 | 0.0306 | 0.0106 | 0.0345 | -0.0146 | -0.0288 | -0.0322 | -0.0015 | -0.0066 | 0.0377 | -0.0846 | -0.011 | 0.0508 | -0.0065 | -0.0355 | -0.0401 | 0.002 | -0.0645 | -0.004
2 | Cc1cc2ncnn2cc1Nc1ncc2c(n1)n(C1CCOCC1)c(=O)n2C [AZD7648] + CCN(CCO)CCCOc1ccc2c(Nc3cc(CC(=O)Nc4cccc(F)c4)[nH]n3)ncnc2c1 [AZD2811] (first compound max 10 µM, 7x7, partner max 1 µM) | 0.023 | -0.0449 | 0.0278 | -0.0407 | -0.0146 | 0.055 | 0.0161 | -0.034 | -0.0026 | 0.0284 | -0.0267 | -0.0524 | 0.03 | -0.074 | -0.0101 | 0.0046 | 0.0333 | -0.026 | 0.0104 | -0.0733
3 | Cc1cc2ncnn2cc1Nc1ncc2c(n1)n(C1CCOCC1)c(=O)n2C [AZD7648] + CN(C)CCCOc1ccc(-c2ccc3ncc4c(c3c2)n(C2CCOCC2)c(=O)n4C)cn1 [AZD0156] (first compound max 10 µM, 7x7, partner max 1 µM) | -0.0385 | -0.0321 | -0.0074 | -0.0497 | 0.0494 | 0.0055 | 0.0332 | -0.0077 | 0.0084 | -0.0115 | 0.0397 | -0.0486 | -0.0228 | 0.0523 | 0.0062 | 0.0157 | 0.0196 | -0.0422 | -0.0187 | -0.0393
4 | Cc1cc2ncnn2cc1Nc1ncc2c(n1)n(C1CCOCC1)c(=O)n2C [AZD7648] + C[C@@H]1COCCN1C2=NC(=NC(=C2)C3(CC3)[S@](=N)(=O)C)C4=C5C=CNC5=NC=C4 [AZD6738] (first compound max 10 µM, 7x7, partner max 10 µM) | -0.0207 | -0.0224 | 0.0466 | 0.0004 | 0.0138 | 0.0444 | 0.0189 | -0.102 | 0.0428 | 0.033 | 0.0562 | 0.0003 | -0.0172 | 0.0004 | 0.0561 | 0.0009 | 0.014 | 0.042 | 0.0327 | 0.046
5 | Cc1cc2ncnn2cc1Nc1ncc2c(n1)n(C1CCOCC1)c(=O)n2C [AZD7648] + O=C(c1cc(Cc2n[nH]c(=O)c3ccccc23)ccc1F)N1CCN(C(=O)C2CC2)CC1 [Olaparib] (first compound max 10 µM, 7x7, partner max 10 µM) | -0.0796 | -0.0469 | -0.0389 | -0.0538 | -0.0052 | -0.042 | -0.0256 | 0.0234 | -0.0431 | -0.0127 | 0.0721 | -0.0466 | -0.0517 | 0.0216 | -0.039 | -0.0257 | 0.0141 | -0.0374 | -0.0353 | -0.0801
6 | COc1cccc2c1C(=O)c1c(O)c3c(c(O)c1C2=O)C[C@@](O)(C(=O)CO)C[C@@H]3O[C@H]1C[C@H](N)[C@H](O)[C@H](C)O1 [Doxorubicin] + Cc1cc2ncnn2cc1Nc1ncc2c(n1)n(C1CCOCC1)c(=O)n2C [AZD7648] (first compound max 1 µM, 7x7, partner max 10 µM) | -0.0143 | 0.003 | 0.0142 | -0.0029 | 0.1 | -0.0004 | -0.0081 | 0.0433 | 0.0581 | 0.0209 | 0.112 | -0.0163 | 0.0511 | 0.144 | 0.0764 | 0.0489 | 0.0891 | 0.0261 | 0.0055 | 0.0068
7 | COc1cccc(OCCCN)c1-c1cc(Nc2cnc(C#N)cn2)n[nH]1 [Prexasertib] + C=CCn1c(=O)c2cnc(Nc3ccc(N4CCN(C)CC4)cc3)nc2n1-c1cccc(C(C)(C)O)n1 [AZD1775] (first compound max 1 µM, partner max 1 µM) | 0.0807 | -0.0353 | 0.0666 | -0.0285 | 0.068 | 0.085 | 0.144 | 0.0601 | 0.0693 | 0.0319 | 0.102 | 0.0582 | 0.0406 | 0.0393 | -0.0318 | 0.16 | 0.0356 | 0.0284 | 0.0999 | 0.0023
8 | COc1cccc(OCCCN)c1-c1cc(Nc2cnc(C#N)cn2)n[nH]1 [Prexasertib] + CCc1c2c(nc3ccc(O)cc13)-c1cc3c(c(=O)n1C2)COC(=O)[C@]3(O)CC [SN-38] (first compound max 1 µM, 7x7, partner max 0.3 µM) | -0.0384 | -0.0408 | 0.0357 | -0.105 | 0.0138 | -0.0399 | 0.0636 | 0.0224 | -0.0529 | -0.0269 | -0.0099 | -0.074 | -0.0552 | 0.0067 | -0.007 | 0.141 | -0.0065 | 0.081 | 0.0888 | -0.058
9 | COc1cccc(OCCCN)c1-c1cc(Nc2cnc(C#N)cn2)n[nH]1 [Prexasertib] + CN(C)CCCOc1ccc(-c2ccc3ncc4c(c3c2)n(C2CCOCC2)c(=O)n4C)cn1 [AZD0156] (first compound max 1 µM, 7x7, partner max 1 µM) | -0.0146 | -0.0512 | 0.0003 | -0.0134 | -0.0253 | -0.0302 | 0.0016 | 0.0329 | 0.142 | -0.0139 | 0.0163 | -0.0341 | -0.05 | -0.044 | -0.0158 | -0.0178 | -0.0718 | -0.0391 | -0.0471 | -0.0611
10 | COc1cccc(OCCCN)c1-c1cc(Nc2cnc(C#N)cn2)n[nH]1 [Prexasertib] + C[C@@H]1COCCN1C2=NC(=NC(=C2)C3(CC3)[S@](=N)(=O)C)C4=C5C=CNC5=NC=C4 [AZD6738] (first compound max 1 µM, 7x7, partner max 10 µM) | -0.0094 | -0.0102 | 0.0191 | 0.0155 | -0.0231 | 0.0003 | -0.0026 | -0.0628 | 0.0001 | 0.0102 | -0.0061 | -0.0469 | -0.0131 | 0.0095 | -0.0238 | 0.032 | -0.0953 | 0.0242 | 0.035 | 0.01
11 | COc1cccc(OCCCN)c1-c1cc(Nc2cnc(C#N)cn2)n[nH]1 [Prexasertib] + Cc1cc2ncnn2cc1Nc1ncc2c(n1)n(C1CCOCC1)c(=O)n2C [AZD7648] (first compound max 1 µM, 7x7, partner max 10 µM) | 0.0252 | -0.0463 | -0.0174 | -0.0374 | -0.0075 | -0.0055 | -0.0904 | -0.0099 | 0.0251 | -0.025 | 0.0696 | -0.009 | -0.0046 | -0.0713 | -0.0294 | -0.0213 | -0.0108 | -0.0791 | -0.0229 | -0.0568
12 | COc1cccc(OCCCN)c1-c1cc(Nc2cnc(C#N)cn2)n[nH]1 [Prexasertib] + O=C(c1cc(Cc2n[nH]c(=O)c3ccccc23)ccc1F)N1CCN(C(=O)C2CC2)CC1 [Olaparib] (first compound max 1 µM, 7x7, partner max 10 µM) | -0.0041 | -0.108 | 0.0226 | -0.0325 | -0.0327 | -0.0093 | -0.0119 | 0.001 | -0.0411 | -0.0348 | 0.0298 | -0.0442 | -0.124 | -0.0338 | -0.0473 | 0.0265 | -0.0683 | -0.0572 | -0.027 | -0.0802
13 | COc1cc2c(cc1OCCCCCOc1cc3c(cc1OC)C(=O)N1C=C(C)C[C@H]1C=N3)N=C[C@@H]1CC(C)=CN1C2=O [SG3199] + O=C(c1cc(Cc2n[nH]c(=O)c3ccccc23)ccc1F)N1CCN(C(=O)C2CC2)CC1 [Olaparib] (first compound max 0.001 µM, 7x7, partner max 10 µM) | -0.0378 | -0.001 | -0.0291 | -0.0625 | 0.025 | -0.0449 | -0.0279 | 0.0054 | -0.0418 | -0.0263 | 0.0274 | -0.0444 | -0.0196 | -0.0267 | -0.0203 | -0.0205 | 0.0663 | -0.0506 | -0.0462 | -0.0581
14 | CCc1c2c(nc3ccc(O)cc13)-c1cc3c(c(=O)n1C2)COC(=O)[C@]3(O)CC [SN-38] + CN(C)CCCOc1ccc(-c2ccc3ncc4c(c3c2)n(C2CCOCC2)c(=O)n4C)cn1 [AZD0156] (first compound max 0.3 µM, 7x7, partner max 1 µM) | -0.0188 | -0.194 | -0.0241 | -0.0202 | 0.0847 | -0.0023 | 0.108 | -0.0037 | -0.0476 | -0.0053 | 0.061 | -0.0032 | -0.0785 | -0.0111 | 0.0361 | -0.037 | -0.0498 | 0.0263 | 0.139 | -0.0287
15 | CC(=O)Nc1cccc(-n2c(=O)n(C3CC3)c(=O)c3c(Nc4ccc(I)cc4F)n(C)c(=O)c(C)c32)c1 [Trametinib] + Cc1nc(-c2cn3c(n2)-c2ccc(-c4cnn(C(C)(C)C(N)=O)c4)cc2OCC3)n(C(C)C)n1 [Taselisib] (first compound max 1 µM, 7x7, partner max 10 µM) | 0.0236 | 0.0155 | 0.0162 | 0.0478 | 0.0452 | 0.0046 | 0.233 | 0.0818 | 0.156 | 0.158 | 0.106 | 0.0523 | 0.122 | 0.132 | -0.0373 | 0.037 | 0.119 | 0.0657 | 0.0234 | 0.003
